Paper PMC9103414 (Journal of pharmacological and toxicological methods, 2022)
Structures can show the parent of a compound that is named as a salt. Where two headings read alike, the source gives them in different places. Marks after values point to notes of the source that are not given here.

How the values were obtained:
hNPCs [1] = assay: hNPC viability; format: cell-based, human; details: Fig. 7A
hiPSC-neurons [2] = assay: Calcium KIC assay; format: cell-based, human; details: each ARV at 10 μM, 7 days; for Calcium transient activity compared to DMSO (traces): Fig. 5, Fig. S1; for Percent active hiPSC-neurons, reduction vs DMSO: Fig. 6D; for Number of active neurons with detectable increases in calcium fluorescence: six wells per condition, Fig. 5 (DMSO: 1034 cells)
[3] = test system: primary embryonic rat neurons; details: ref Stern, et al., 2018, cited from earlier work; for Number of MAP2+ neurons: 10 μM
hiPSC-neurons [4] = details: for Neuronal Viability (percentage of live neuronal nuclei), reduction vs DMSO / Neuronal Viability, change vs DMSO: Fig. 1B; for Total Neurite Length (per cm^2 image area), reduction vs DMSO: Fig. 1C; for Neuronal Viability, reduction vs DMSO: Fig. 2D
hiPSC-neurons [5] = assay: HCA of synapses; format: cell-based, human
[6] = cited from earlier work; for Plasma concentrations reach steady state by day: daily dosage, ref Min, et al.; for Cmax: read-out: Plasma Cmax, ref Food and Drug Administration New Drug Applications for each antiretroviral
hiPSC-microglia = details: cited from earlier work
hNPCs [7] = assay: Microscopic Imaging of Epigenetic Landscapes; format: cell-based, human; details: for Samples classified correctly by discriminant analysis: H3K27me3/H3K27ac and H3K9me3/H3K4me1 confusion matrices, Fig. 7D, E
murine NPCs = details: ref Demir & Laywell, 2015; P. Xu, et al., 2017; cited from earlier work
[8] = lower concentrations (0.1, 1 μM), 7 days
[9] = 25 μM (inhibiting myosin activity)

Row | Molecule | Mean Peak Amplitude, percent difference between ARV treatment and DMSO control (hiPSC-neurons [2]) | Percent Active, percent difference between ARV treatment and DMSO control (hiPSC-neurons [2]) | Number of active neurons with detectable increases in calcium fluorescence (hiPSC-neurons [2]) [cells] | Neuronal Viability (percentage of live neuronal nuclei), reduction vs DMSO (hiPSC-neurons [4]; 10 μM, 7 days) [%] | Total Neurite Length (per cm^2 image area), reduction vs DMSO (hiPSC-neurons [4]; 10 μM, 7 days) [%] | Total Neurite Length, percent difference between ARV treatment and DMSO control (hiPSC-neurons [4]; each ARV at 10 μM, 7 days) | Neuronal Viability, reduction vs DMSO (hiPSC-neurons [4]; each ARV at 10 μM, 7 days) [%] | Synapses/Neurite Length, reduction vs DMSO (hiPSC-neurons [5]; 0.1 μM, 7 days, Fig. 3C) [%] | Synapses/Neurite Length, reduction vs DMSO (hiPSC-neurons [5]; 1 μM, 7 days, Fig. 3C) | Synapse Density, reduction vs DMSO (hiPSC-neurons [5]; 10 μM, 7 days, Fig. 3B) [%] | Synapse Density, percent difference between ARV treatment and DMSO control (hiPSC-neurons [5]; each ARV at 10 μM, 7 days) | Synapse Density, reduction vs DMSO (hiPSC-neurons [5]; 1 μM, 7 days, Fig. 3B) [%] | Synapses/Neurite Length, reduction vs DMSO (hiPSC-neurons [5]; 10 μM, 7 days, Fig. 3C) | Cmax [6] [µM] | further results
1 | C[C@@H]1CCN(C(=O)CC#N)C[C@@H]1N(C)c1ncnc2[nH]ccc12 [tofacitinib] | – | – | – | – | – | – | – | – | – | – | – | – | – | – | hNPC viability, effect (hNPCs [1]; 1 μM): not affected
2 | COc1cc2c(cc1Cc1cccc(Cl)c1F)c(=O)c(C(=O)O)cn2[C@H](CO)C(C)C [EVG, elvitegravir] | −55 ^** percent | −90 ^*** percent | 31 | 65 | 80 | −85 ^*** percent | 80 | 25 | no effect | 75 | −90 ^*** percent | – | – | – | Event Frequency, percent difference between ARV treatment and DMSO control (hiPSC-neurons [2]): −40 ^** percent; Calcium transient activity compared to DMSO (traces) (hiPSC-neurons [2]): virtually inactive; Percent active hiPSC-neurons, reduction vs DMSO (hiPSC-neurons [2]): 90%; Calcium transient event frequency, reduction vs DMSO (hiPSC-neurons [2]; Fig. 6E): 40%; Calcium transient mean peak amplitude, reduction vs DMSO (hiPSC-neurons [2]; Fig. 6F): 55%; Number of MAP2+ neurons ([3]; four days): significantly reduced the number of MAP2+ neurons; Number of MAP2+ neurons ([3]; two days): not two days; Neurotoxicity ([3]; 0.1 and 1 μM): not neurotoxic; Neurite Length per Neuron, lower than DMSO (hiPSC-neurons [4]; 10 μM, 7 days, Fig. 1D): 50%; Total Neurite Length, reduction vs DMSO (hiPSC-neurons [4]; each ARV at 10 μM, 7 days, Fig. 2E): 85%; Neuronal Viability, change vs DMSO (hiPSC-neurons [4]; [8]): did not observe changes; Synapse Density (synapses per cm^2 imaging area), reduction vs DMSO (hiPSC-neurons [5]; 0.1 μM, 7 days, Fig. 3B): 20%; Synapses/Neurite Length, increase vs DMSO (hiPSC-neurons [5]; 10 μM, 7 days, Fig. 3C): 20%; Synapse Density, reduction vs DMSO (hiPSC-neurons [5]; each ARV at 10 μM, 7 days, Fig. 4C): 90%
3 | C[C@@H]1CCO[C@H]2Cn3cc(C(=O)NCc4ccc(F)cc4F)c(=O)c(O)c3C(=O)N12 [DTG, dolutegravir] | −35(NS) percent | −30 ^* percent | 716 | 30 | 20 | −14(NS) percent | 20 | 20 | 30% | – | −10(NS) percent | 30 | no effect | 8 | Event Frequency, percent difference between ARV treatment and DMSO control (hiPSC-neurons [2]): −10(NS) percent; Calcium transient activity compared to DMSO (traces) (hiPSC-neurons [2]): less calcium transient activity compared to DMSO; Percent active hiPSC-neurons, reduction vs DMSO (hiPSC-neurons [2]): 30%; Neurite Length per Neuron, increase vs DMSO (hiPSC-neurons [4]; 10 μM, 7 days, Fig. 1D): 20%; Plasma concentrations reach steady state by day ([6]; healthy volunteers, 2010): ≤ 5 days; Plasma concentrations reach steady state by day ([6]; people with HIV, 2011): ≤ 7 days
4 | O=C1Nc2ccc(Cl)cc2[C@@](C#CC2CC2)(C(F)(F)F)O1 [efavirenz] | – | – | – | – | – | – | – | – | – | – | – | – | – | – | Inflammation in hiPSC-microglia (hiPSC-microglia): increased inflammation; Phagocytosis in hiPSC-microglia (hiPSC-microglia): reduced phagocytosis
5 | O=C(CCCCCCC(=O)Nc1ccccc1)NO [SAHA] | – | – | – | – | – | – | – | – | – | – | – | – | – | – | hNPC viability, reduction vs DMSO (hNPCs [1]; 3 μM): 45%; Samples classified correctly by discriminant analysis (hNPCs [7]; 3 μM): 100%
6 | Nc1nc(=O)n([C@@H]2CS[C@H](CO)O2)cc1F [FTC, emtricitabine] | −10(NS) percent | – | 1003 | – | – | −6(NS) percent | – | 20 | 20% | 30 | −10(NS) percent | 20 | 30% | 7 | Neuronal Viability, change vs DMSO (hiPSC-neurons [4]; any tested concentration (0.1, 1, 10 μM), 7 days): did not observe changes
7 | CCCc1cc(C)[nH]c(=O)c1CNC(=O)c1cc(-c2ccnc(N3CCN(C)CC3)c2)cc2c1cnn2C(C)C [GSK343] | – | – | – | – | – | – | – | – | – | – | – | – | – | – | hNPC viability, reduction vs DMSO (hNPCs [1]; 10 μM, three days): 50%; Samples classified correctly by discriminant analysis (hNPCs [7]; 10 μM): 100%
8 | CC(C)OC(=O)OCOP(=O)(CO[C@H](C)Cn1cnc2c(N)ncnc21)OCOC(=O)OC(C)C [TDF, tenofovir disoproxil fumarate] | +20(NS) percent | −10(NS) percent | 729 | 35 | 20 | – | 30 | 20 | 25% | 40 | – | 30 | 20% | 0.6 | Neuronal Viability, change vs DMSO (hiPSC-neurons [4]; [8]): did not observe changes; Viability of murine NPCs (murine NPCs): reduce the viability; hNPC viability, reduction vs DMSO (hNPCs [1]; 10 μM, three days): 30%; Effect on epigenetic landscape (H3K27me3/H3K27ac and H3K9me3/H3K4me1 MIEL analysis) (hNPCs [7]; 10 μM, three days, Fig. 7B–E): altered the epigenetic landscape
9 | Cc1cn([C@H]2C[C@H](N=[N+]=[N-])[C@@H](CO)O2)c(=O)[nH]c1=O [zidovidine] | – | – | – | – | – | – | – | – | – | – | – | – | – | – | Viability of murine NPCs (murine NPCs): reduce the viability
10 | para-nitroblebbistatin | – | – | – | – | – | – | – | – | – | – | – | – | – | – | Neurite length, effect (hiPSC-neurons [4]; [9]): did not affect; Neuron viability, effect (hiPSC-neurons [4]; [9]): did not affect; Total Neurite Length, increase vs DMSO (hiPSC-neurons [4]; 25 μM, one day, Fig. 2B): 15%; Synapse Density, reduction vs DMSO (hiPSC-neurons [5]; 25 μM, 7 days, Fig. 3B): 30%; Synapses/Neurite Length, reduction vs DMSO (hiPSC-neurons [5]; 25 μM, 7 days, Fig. 3C): 20%; Synapse Density, increase vs DMSO (hiPSC-neurons [5]; 25 μM, one day, Fig. 4A): 20%
